Results published in patent US10966970B2, “Fused tricyclic compounds and uses thereof in medicine” (SUNSHINE LAKE PHARMA CO., LTD., priority 2017, dated 2021).

Tests used:
HBV DNA replication = experiment: Inhibition of HBV virus replication (HBV DNA in supernatant, qPCR); assay type: cell-based; details: Hepatitis B virus, 240 h; HepG2.2.15 cells, 10 days treatment, supernatant HBV DNA by qPCR
Experimental: (§1) The chromosomes of HepG2.2.15 cells (SELLS, PNAS, 1987 and SELLS, JV, 1988) integrate the complete HBV genome and stably express viral RNA and viral proteins. HepG2.2.15 cells are able to secrete mature HBV particles and HBsAg into the culture medium. Viral particle DNA and HBsAg secreted by HepG 2.2.15 cells can be quantified by qPCR and ELISA methods, and the effects of the compound on virus replication and HBsAg secretion are thus examined.
(§2) HepG 2.2.15 Cells (8,000 per well) were seeded into 96-well cell culture plates in duplicate and cultured for 3 days until the cells grew to fill in pores. Cells were treated with 4-fold serial diluted compound solution for 10 days, and the compound solution was exchanged once every other day, the final concentration of DMSO in all wells was 0.5% and DMSO was used as a drug-free control. On the eleventh day, the supernatant was collected for quantitative detection of HBV DNA.
qPCR method was used for detection of viral genomic DNA, HBV primers were as follows: HBV-For-202, […]; HBV-Rev-315, […].
Using the SY BR Premix Ex Taq II—Takara DRR081S kit, 1 ≈L of the cell culture supernatant was used as a template, a plasmid containing the HBV genome was used for plotting a standard curve, and virus copy number was calculated using the standard curve. Concentration-virus copy number was treated with Graphpad Prism 5 software and the IC50 of inhibition of virus replication by compounds was calculated by a four-parameter nonlinear regression model.

HBsAg secretion = experiment: Inhibition of HBsAg secretion (ELISA); assay type: cell-based, HBV; details: Hepatitis B virus, HepG2.2.15, 240 h, read-out: HbsAg IC50 (nM)
Experimental: as §1
as §2, with “HBsAg.” for “HBV DNA.”
The level of HBsAg secreted by the cells after treatment with the compound was detected by ELISA. The method used a hepatitis B surface antigen diagnostic kit (Shanghai K ehua Biotechnology Co., Ltd. 510910113). 25 ≈L of the supernatant to be examined (diluted to 75 ≈L in PBS) was added to each well of the ELISA plate, and a kit-positive control and a negative control were set. The ELISA plates were blocked with mounting paper and incubated at 37 eC for 60 minutes. The ELISA plate was took out, and the mounting paper was removed, then 50 ≈L of enzyme conjugate was added into each well. After shaking for 10 seconds, the ELISA plates were blocked with mounting paper and incubated at 37 eC for 30 minutes. The ELISA plate was took out, and the mounting paper was removed, and the ELISA plate was repeated washing five times: liquid in the wells was discard each time; the wells was filled with washing solution, then stood for 60 seconds and spined dry; and liquid residue on blotting paper was patted dry. After the washing was completed, to all wells was immediately added a mixture of freshly prepared developer A and developer B: 100 ≈L per well. After shaking for 10 seconds on oscillator, the ELISA plates were blocked with mounting paper and incubated at 37 eC for 30 minutes. To all wells were added 50 ≈L of stop solution. Data were read at a wavelength of 450 nm on an Envision plate reader. Concentration-HBsAg OD450 value was treated with Graphpad Prism 5 software and the IC50 of inhibition of HBsAg secretion by compounds was calculated by a four-parameter nonlinear regression model.

| SMILES | IC50 (HBV DNA replication) [nM] | IC50 (HBsAg secretion) [nM] |
| --- | --- | --- |
| COCCCOc1cc2c(cc1-c1cncs1)-c1cc(=O)c(C(=O)O)cn1C(C(C)C)C2 (centres unmarked) [Example 33, 6-isopropyl-9-(3-methoxypropoxy)-2-oxo-10-(thiazol-5-yl)-6,7-dihydro-2H-pyrido[2,1-a]isoquinoline-3-carboxylic Acid] | 1.93 | 3.08 |
| COC(=O)c1cc2c(cc1N1CCCC1)CC(C(C)C)n1cc(C(=O)O)c(=O)cc1-2 (centres unmarked) [Example 34, 6-isopropyl-10-(methoxycarbonyl)-2-oxo-9-(pyrrolidin-1-yl)-6,7-dihydro-2H-pyrido[2,1-a]isoquinoline-3-carboxylic Acid] | 4.74 | 9.85 |
| COCCCOc1cc2c(cc1C(=O)OCC(F)F)-c1cc(=O)c(C(=O)O)cn1C(C(C)C)C2 (centres unmarked) [Example 35, 10-((2,2-difluoroethoxy)carbonyl)-6-isopropyl-9-(3-methoxypropoxy)-2-oxo-6,7-dihydro-2H-pyrido[2,1-a]isoquinoline-3-carboxylic Acid] | 7.59 | 9.25 |
| C#CCOC(=O)c1cc2c(cc1OCCCOC)CC(C(C)C)n1cc(C(=O)O)c(=O)cc1-2 (centres unmarked) [Example 36, 6-isopropyl-9-(3-methoxypropoxy)-2-oxo-10-((prop-2-yn-1-yloxy)carbonyl)-6,7-dihydro-2H-pyrido[2,1-a]isoquinoline-3-carboxylic Acid] | 2.55 | 4.22 |
| COCCCOc1cc2c(cc1-c1ccccn1)-c1cc(=O)c(C(=O)O)cn1C(C(C)C)C2 (centres unmarked) [Example 67, 6-isopropyl-9-(3-methoxypropoxy)-2-oxo-10-(pyridin-2-yl)-6,7-dihydro-2H-pyrido[2,1-a]isoquinoline-3-carboxylic Acid] | 4.36 | 7.77 |
| CC(C)C1Cc2cc(N3CCCC3)c(-c3nccs3)cc2-c2cc(=O)c(C(=O)O)cn21 (centres unmarked) [Example 69, 6-isopropyl-2-oxo-9-(pyrrolidin-1-yl)-10-(thiazol-2-yl)-6,7-dihydro-2H-pyrido[2,1-a]isoquinoline-3-carboxylic Acid] | 10.2 | 15.2 |
| COC(=O)c1cc2c(cc1-c1ccc(Cl)s1)CC(C(C)C)n1cc(C(=O)O)c(=O)cc1-2 (centres unmarked) [Example 73, 9-(5-chlorothiophen-2-yl)-6-isopropyl-10-(methoxycarbonyl)-2-oxo-6,7-dihydro-2H-pyrido[2,1-a]isoquinoline-3-carboxylic Acid] | 3.88 | 12.7 |
| COC(=O)c1cc2c(cc1-c1ccc(Cl)o1)CC(C(C)C)n1cc(C(=O)O)c(=O)cc1-2 (centres unmarked) [Example 74, 9-(5-chlorofuran-2-yl)-6-isopropyl-10-(methoxycarbonyl)-2-oxo-6,7-dihydro-2H-pyrido[2,1-a]isoquinoline-3-carboxylic Acid] | 2.97 | 3.68 |
| COc1cc2c(cc1-c1nccs1)CC(C(C)C)n1cc(C(=O)O)c(=O)cc1-2 (centres unmarked) [Example 75, 6-isopropyl-10-methoxy-2-oxo-9-(thiazol-2-yl)-6,7-dihydro-2H-pyrido[2,1-a]isoquinoline-3-carboxylic Acid] | 2.1 | 2.41 |
| COc1cc2c(cc1-c1ncc(C(C)C)s1)CC(C(C)C)n1cc(C(=O)O)c(=O)cc1-2 (centres unmarked) [Example 77, 6-isopropyl-9-(5-isopropylthiazol-2-yl)-10-methoxy-2-oxo-6,7-dihydro-2H-pyrido[2,1-a]isoquinoline-3-carboxylic Acid] | 2.79 | 2.87 |
| COCc1csc(-c2cc3c(cc2OC)-c2cc(=O)c(C(=O)O)cn2C(C(C)C)C3)n1 (centres unmarked) [Example 78, 6-isopropyl-10-methoxy-9-(4-(methoxymethyl)thiazol-2-yl)-2-oxo-6,7-dihydro-2H-pyrido[2,1-a]isoquinoline-3-carboxylic Acid] | 2.84 | 3.26 |
| COc1cc2c(cc1-c1ccc(Cl)s1)CC(C(C)C)n1cc(C(=O)O)c(=O)cc1-2 (centres unmarked) [Example 79, 9-(5-chlorothiophen-2-yl)-6-isopropyl-10-methoxy-2-oxo-6,7-dihydro-2H-pyrido[2,1-a]isoquinoline-3-carboxylic Acid] | 2.01 | 2.95 |
| COc1cc2c(cc1-c1ncc(Br)s1)CC(C(C)C)n1cc(C(=O)O)c(=O)cc1-2 (centres unmarked) [Example 80, 9-(5-bromothiazol-2-yl)-6-isopropyl-10-methoxy-2-oxo-6,7-dihydro-2H-pyrido[2,1-a]isoquioline-3-carboxlic Acid] | 2.57 | 2.16 |
